Data as given in paper PMC10589713 (Proceedings of the National Academy of Sciences of the …, 2023).
Where “and” joins values, the source holds several entries; their conditions need not be identical. Equal entries are not always repeated.

Tested on: SARS-CoV-2
Test: microbe, parasite or virus in culture
Assay type: cell-based

With O=c1ccn([C@@H]2O[C@H](CO)[C@@H](O)[C@H]2O)c(=S)[nH]1 [s2U, 2-thiouridine] the EC50 was 2000 nM and 2200 nM and 1800 nM and 2900 nM and 1900 nM and 2500 nM.
